The results in this text go back to patent publication US8198285B2, “Pyrazine derivatives” (Astrazeneca AB, priority 2010, dated 2012).

In assay [1] the target is T1, cardiac Na+ channel, hNav1.5 (Homo sapiens, UniProt Q14524).
T1 construct: expressed in transfected cells; host or cells: Chinese hamster ovary K1 (CHO) cells
Briefly: hNav1.5 IonWorks electrophysiology in CHO cells. In kind it is cell-based. To be noted: IonWorks Quattro, 3 Hz, room temperature. The method, then: The hNav1.5-expressing Chinese hamster ovary K1 (CHO) cells used has been described previously (Persson, F. et al, (2005), Journal of Cardiovascular Electrophysiology, 16, 329-341). These cells were grown to semi-confluence at 37° C. in a humidified environment (5% CO2) in F-12 Ham medium containing Glutamax™, 10% foetal calf serum and 1 mg/ml G418 (all Invitrogen). Prior to use, the monolayer was washed using a pre-warmed (37° C.) 3 ml aliquot of Versene 1:5000 (Invitrogen). After aspiration of this solution the flask was incubated at 37° C. with a further 3 ml of Versene 1:5000 for a period of 6 min. […] A 0.5 ml aliquot of cell suspension was removed and the number of viable cells (based on trypan blue exclusion) was determined in an automated cell counter (Cedex; Innovatis) so that the cell re-suspension volume could be adjusted with PBS to give the desired final cell concentration. […]
Pre- and post-scan hNav1.5 current amplitude was measured from the leak-subtracted traces by the IonWorks™ software by taking the average current during the end of the depolarising pulse to 0 mV (baseline current) and subtracting this from the peak inward current. […]

Assay [2] deals with DYRK1a (Dual Specificity Tyrosine Phosphorylated and Regulated Kinase 1a) (Homo sapiens, UniProt Q13627). Briefly: Inhibitory activity against DYRK1a. In kind it is biochemical.

pIC50: −log10 of the molar value. Counter-ions that a name gives are not always drawn.

T1 sequence (Q14524 whole entry): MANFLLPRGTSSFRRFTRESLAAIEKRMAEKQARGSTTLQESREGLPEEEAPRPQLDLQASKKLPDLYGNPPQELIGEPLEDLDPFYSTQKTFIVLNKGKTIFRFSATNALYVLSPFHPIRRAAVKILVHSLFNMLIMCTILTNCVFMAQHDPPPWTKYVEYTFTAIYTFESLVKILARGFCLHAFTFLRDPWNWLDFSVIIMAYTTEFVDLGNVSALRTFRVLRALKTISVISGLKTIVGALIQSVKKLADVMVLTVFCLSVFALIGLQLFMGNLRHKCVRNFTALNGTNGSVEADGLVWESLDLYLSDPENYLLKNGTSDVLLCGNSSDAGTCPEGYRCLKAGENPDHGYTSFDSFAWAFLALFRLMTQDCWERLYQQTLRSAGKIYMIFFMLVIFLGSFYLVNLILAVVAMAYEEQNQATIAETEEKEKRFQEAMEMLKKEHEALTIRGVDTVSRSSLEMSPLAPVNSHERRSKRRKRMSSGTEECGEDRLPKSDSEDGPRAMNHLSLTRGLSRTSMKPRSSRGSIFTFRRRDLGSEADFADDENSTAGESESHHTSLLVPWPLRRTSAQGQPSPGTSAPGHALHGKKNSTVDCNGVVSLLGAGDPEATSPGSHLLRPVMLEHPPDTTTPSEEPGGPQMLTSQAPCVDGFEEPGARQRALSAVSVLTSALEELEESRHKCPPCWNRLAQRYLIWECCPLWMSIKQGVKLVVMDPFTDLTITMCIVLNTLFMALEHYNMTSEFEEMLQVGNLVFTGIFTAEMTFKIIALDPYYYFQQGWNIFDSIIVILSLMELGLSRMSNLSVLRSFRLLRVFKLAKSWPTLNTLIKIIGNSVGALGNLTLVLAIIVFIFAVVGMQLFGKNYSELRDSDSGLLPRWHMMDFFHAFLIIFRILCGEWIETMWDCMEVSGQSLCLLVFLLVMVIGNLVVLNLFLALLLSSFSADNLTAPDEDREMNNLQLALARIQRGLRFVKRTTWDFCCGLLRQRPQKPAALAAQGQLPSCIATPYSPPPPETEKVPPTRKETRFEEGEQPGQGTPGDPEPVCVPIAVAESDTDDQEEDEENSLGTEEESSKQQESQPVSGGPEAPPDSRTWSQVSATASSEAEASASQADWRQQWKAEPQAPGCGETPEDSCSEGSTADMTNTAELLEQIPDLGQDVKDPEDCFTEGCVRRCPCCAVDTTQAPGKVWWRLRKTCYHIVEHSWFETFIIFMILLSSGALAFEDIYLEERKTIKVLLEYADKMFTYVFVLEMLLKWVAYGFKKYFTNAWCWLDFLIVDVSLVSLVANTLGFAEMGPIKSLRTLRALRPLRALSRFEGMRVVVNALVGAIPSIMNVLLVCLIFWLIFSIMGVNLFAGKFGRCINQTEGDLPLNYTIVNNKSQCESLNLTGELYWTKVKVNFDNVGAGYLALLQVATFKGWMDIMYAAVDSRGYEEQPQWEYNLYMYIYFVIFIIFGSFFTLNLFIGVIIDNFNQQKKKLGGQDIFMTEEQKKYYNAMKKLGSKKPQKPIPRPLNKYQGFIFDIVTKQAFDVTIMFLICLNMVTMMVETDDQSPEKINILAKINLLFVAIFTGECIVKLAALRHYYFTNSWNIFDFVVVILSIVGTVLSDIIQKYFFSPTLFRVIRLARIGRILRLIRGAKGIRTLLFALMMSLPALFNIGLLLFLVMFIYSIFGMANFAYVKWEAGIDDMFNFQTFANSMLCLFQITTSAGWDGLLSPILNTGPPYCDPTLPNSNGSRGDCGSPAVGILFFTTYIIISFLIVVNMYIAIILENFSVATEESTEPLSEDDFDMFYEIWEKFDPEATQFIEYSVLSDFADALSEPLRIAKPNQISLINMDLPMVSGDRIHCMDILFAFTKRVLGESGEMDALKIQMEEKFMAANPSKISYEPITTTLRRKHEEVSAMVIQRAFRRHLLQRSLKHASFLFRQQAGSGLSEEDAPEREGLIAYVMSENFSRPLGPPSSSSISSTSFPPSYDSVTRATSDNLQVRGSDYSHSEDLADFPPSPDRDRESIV

As to `COCCCNCCCc1ccc(-c2cnc(N)c(C(=O)Nc3cccnc3)n2)cc1` [Example 1, 3-Amino-6-(4-{3-[(3-methoxypropyl)amino]propyl}phenyl)-N-pyridin-3-ylpyrazine-2-carboxamide tri-hydrochloride], in assay [1], the pIC50 was 4.67. The “Inhibitory activity against DYRK1a” value in assay [2] is “inhibitory activity”.
